From ChEMBL document CHEMBL1201862, “PubChem BioAssay data set” (2004)
Values joined by “and” are separate entries in the source; they are usually repeats but may differ in a detail not shown here. Equal entries are not always repeated. Active and inactive are the calls of the source.

Experiments:
[1] = biological target: T1, Carboxy-terminal domain RNA polymerase II polypeptide A small phosphatase 1 (Homo sapiens, UniProt Q9GZU7); experiment: CTDSP1 inhibitors, concentration-response, biochemical, absorbance readout, ultra-high-throughput screen actives (AID 540297); type: functional
T1 sequence (Q9GZU7 whole entry): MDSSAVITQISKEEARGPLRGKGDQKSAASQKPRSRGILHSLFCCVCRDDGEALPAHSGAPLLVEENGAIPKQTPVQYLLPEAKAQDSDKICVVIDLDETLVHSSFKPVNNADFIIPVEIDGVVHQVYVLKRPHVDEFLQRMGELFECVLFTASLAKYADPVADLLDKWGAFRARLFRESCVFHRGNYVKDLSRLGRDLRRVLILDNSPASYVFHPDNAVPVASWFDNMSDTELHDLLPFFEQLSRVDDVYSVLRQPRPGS

[2] = biological target: Beta-adrenergic receptor kinase 1 (Homo sapiens, UniProt P25098); experiment: blockers of aptamer binding to GRK2 – biochemical, flow cytometry beads, FAM-aptamer, powder set 1, dose response (AID 588720)
Chain of Beta-adrenergic receptor kinase 1 (P25098 whole entry): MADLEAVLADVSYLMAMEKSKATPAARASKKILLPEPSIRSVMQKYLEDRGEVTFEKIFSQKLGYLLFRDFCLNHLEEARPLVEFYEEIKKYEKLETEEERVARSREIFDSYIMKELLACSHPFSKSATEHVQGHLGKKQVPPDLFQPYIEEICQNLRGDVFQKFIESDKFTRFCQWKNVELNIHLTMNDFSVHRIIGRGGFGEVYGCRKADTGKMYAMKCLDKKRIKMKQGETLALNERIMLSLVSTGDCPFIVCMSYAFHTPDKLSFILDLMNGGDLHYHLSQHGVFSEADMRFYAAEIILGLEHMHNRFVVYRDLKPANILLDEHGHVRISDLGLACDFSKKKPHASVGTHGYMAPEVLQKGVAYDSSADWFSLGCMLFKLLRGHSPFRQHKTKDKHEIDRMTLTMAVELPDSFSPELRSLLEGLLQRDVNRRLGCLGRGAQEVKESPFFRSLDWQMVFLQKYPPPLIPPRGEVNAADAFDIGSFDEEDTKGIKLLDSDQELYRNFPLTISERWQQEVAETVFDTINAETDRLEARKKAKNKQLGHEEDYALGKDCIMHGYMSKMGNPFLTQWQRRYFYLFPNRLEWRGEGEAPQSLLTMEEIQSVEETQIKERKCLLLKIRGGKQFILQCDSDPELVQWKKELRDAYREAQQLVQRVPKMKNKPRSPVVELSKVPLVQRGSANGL

HEK293 [3] = experiment: SAR Analysis of small molecule inhibitors of B-cell specific antigen receptor-induced NF-kB activation in a HEK-293T cell line using a luminescence assay - Set 2. [Related pubchem assays (depositor defined):AID435022, AID435025, AID489021]; type: functional, cell-based; conditions: Homo sapiens
HEK293 [4] = experiment: HEK293T cell viability loss, resazurin readout – resazurin fluorescence, cytotoxicity control for NF-kB activator project, SAR follow-up (AID 493251); type: functional, cell-based; conditions: Homo sapiens
[5] = HEK-293T cell viability reduction – luminescence, B-cell screen hits, cytotoxicity control for BCR NF-kB inhibitor project, dose response (AID 489021); type: functional, cell-based;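 further: HEK-293T cells carrying an NF-kB luciferase reporter; cells exposed to compound for about 14 hours before viability readout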
Jurkat [6] = experiment: SAR Analysis of small molecule inhibitors of […] specific antigen receptor-induced NF-kB activation in a Jurkat cell line using a luminescence assay - Set 3. [Related pubchem assays (depositor defined):AID435022, AID435025, AID465]; type: functional, cell-based; conditions: Homo sapiens
BJ [7] = experiment: growth inhibition of engineered Ras-driven BJ cells – cell-based, alamar blue fluorescence, cherrypicked samples, dose response (AID 2631); type: functional; conditions: Homo sapiens;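 further: confirmatory dose-response assay in RAS-dependent BJ fibroblasts engineered with TERT, LT and ST, with cytotoxicity read by fluorescence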
[8] = restored growth of temperature-sensitive Burl-1 yeast – whole organism, S. cerevisiae, Burl-1 ts mutant, luminescence, counter-screen for SUMOylation pathway inhibitor project, dose response (AID 463199); type: functional
BJ [9] = experiment: cells; type: functional, cell-based; conditions: Homo sapiens
HEK293 [10] = experiment: cells; conditions: Homo sapiens
BJ [11] = experiment: BJ-TERT fibroblast viability loss – cell-based, RAS-independent, luminescence, dose response (AID 1933); type: functional; conditions: Homo sapiens
BJ [12] = experiment: BJ-TERT-LT-ST fibroblast viability loss – cell-based, RAS-independent, luminescence, dose response (AID 1935); type: functional; conditions: Homo sapiens;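 further: BJ fibroblasts immortalized with TERT plus LT and ST oncogenes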
HEK293 [13] = experiment: cells; conditions: Homo sapiens; remark: listed apart in the source
[14] = DRD fibroblast viability loss – cell-based, non-viral oncogenic, luminescence, dose response (AID 1934); type: functional; conditions: Homo sapiens
[15] = biological target: T2, Tyrosine-protein phosphatase non-receptor type 7 (Homo sapiens, UniProt P35236); experiment: inhibition of hematopoietic tyrosine phosphatase HePTP – biochemical, set 2, SAR follow-up (AID 449736); type: functional
T2 sequence (P35236 whole entry): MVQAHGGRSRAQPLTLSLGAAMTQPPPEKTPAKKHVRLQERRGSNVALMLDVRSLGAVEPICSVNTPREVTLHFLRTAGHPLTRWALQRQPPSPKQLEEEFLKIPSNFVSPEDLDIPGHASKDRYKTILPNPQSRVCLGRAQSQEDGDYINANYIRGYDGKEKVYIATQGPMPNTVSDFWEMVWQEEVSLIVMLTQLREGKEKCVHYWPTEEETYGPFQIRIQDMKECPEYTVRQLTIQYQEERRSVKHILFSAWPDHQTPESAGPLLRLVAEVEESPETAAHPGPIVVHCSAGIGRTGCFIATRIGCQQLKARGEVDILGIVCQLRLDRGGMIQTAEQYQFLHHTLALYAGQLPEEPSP

[16] = biological target: T3, Dual specificity protein phosphatase 6 (Rattus norvegicus, UniProt Q64346); experiment: inhibition of rat DUSP6 enzyme activity – biochemical, in vitro, primary screen (AID 425)
T3 sequence (Q64346 whole entry): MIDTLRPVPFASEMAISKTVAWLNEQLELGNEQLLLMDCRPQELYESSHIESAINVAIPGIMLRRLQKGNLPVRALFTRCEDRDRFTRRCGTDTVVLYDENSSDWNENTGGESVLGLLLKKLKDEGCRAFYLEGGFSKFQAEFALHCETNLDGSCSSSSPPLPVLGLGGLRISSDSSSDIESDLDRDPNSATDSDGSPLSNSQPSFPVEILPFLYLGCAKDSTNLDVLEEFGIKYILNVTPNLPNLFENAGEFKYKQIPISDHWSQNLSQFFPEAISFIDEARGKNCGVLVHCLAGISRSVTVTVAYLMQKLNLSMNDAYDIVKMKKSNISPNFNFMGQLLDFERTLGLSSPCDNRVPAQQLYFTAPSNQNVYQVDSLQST

[17] = biological target: T4, Dual specificity protein phosphatase 3 (Homo sapiens, UniProt P51452); experiment: SAR VHR1 Fluorescent Assay for In Vitro dose response studies Set 2. [Related pubchem assays (depositor defined):AID1654, AID1661, AID1878]; type: functional
T4 sequence (P51452 whole entry): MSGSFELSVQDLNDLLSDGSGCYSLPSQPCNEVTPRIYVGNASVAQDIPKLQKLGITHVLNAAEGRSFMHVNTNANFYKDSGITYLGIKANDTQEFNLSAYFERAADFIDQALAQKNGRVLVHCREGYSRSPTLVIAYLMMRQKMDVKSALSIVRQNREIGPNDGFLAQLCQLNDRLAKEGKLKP

[18] = biological target: DNA dC->dU-editing enzyme APOBEC-3A (Homo sapiens, UniProt P31941); experiment: A3A deaminase inhibition for selectivity – biochemical, dose response (AID 504722); type: functional
Chain of DNA dC->dU-editing enzyme APOBEC-3A (P31941 whole entry): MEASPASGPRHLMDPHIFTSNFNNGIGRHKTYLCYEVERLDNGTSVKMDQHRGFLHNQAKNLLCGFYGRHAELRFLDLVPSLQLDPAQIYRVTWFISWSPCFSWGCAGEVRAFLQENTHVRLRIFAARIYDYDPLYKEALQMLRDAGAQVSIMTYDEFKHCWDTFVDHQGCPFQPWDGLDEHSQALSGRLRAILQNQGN

[19] = biological target: T2, Tyrosine-protein phosphatase non-receptor type 7; experiment: SAR analysis of chemical inhibitors of HePTP using a Fluorescent assay - Set 2. [Related pubchem assays (depositor defined):AID1059, AID1077, AID1661, AID2085, AID521]; type: functional
[20] = biological target: T2, Tyrosine-protein phosphatase non-receptor type 7; experiment: redox-active compounds inhibiting HePTP phosphatase – biochemical, fluorescence, mechanism study (AID 2068); type: functional
[21] = biological target: T5, Rac GTPase-activating protein 1 (Homo sapiens, UniProt Q9H0H5); experiment: blockers of MgcRacGAP-driven Rac1 GTP hydrolysis – biochemical, ADP Hunter fluorescence, primary and confirmatory, confirmation (AID 624330); type: functional
T5 sequence (Q9H0H5 whole entry): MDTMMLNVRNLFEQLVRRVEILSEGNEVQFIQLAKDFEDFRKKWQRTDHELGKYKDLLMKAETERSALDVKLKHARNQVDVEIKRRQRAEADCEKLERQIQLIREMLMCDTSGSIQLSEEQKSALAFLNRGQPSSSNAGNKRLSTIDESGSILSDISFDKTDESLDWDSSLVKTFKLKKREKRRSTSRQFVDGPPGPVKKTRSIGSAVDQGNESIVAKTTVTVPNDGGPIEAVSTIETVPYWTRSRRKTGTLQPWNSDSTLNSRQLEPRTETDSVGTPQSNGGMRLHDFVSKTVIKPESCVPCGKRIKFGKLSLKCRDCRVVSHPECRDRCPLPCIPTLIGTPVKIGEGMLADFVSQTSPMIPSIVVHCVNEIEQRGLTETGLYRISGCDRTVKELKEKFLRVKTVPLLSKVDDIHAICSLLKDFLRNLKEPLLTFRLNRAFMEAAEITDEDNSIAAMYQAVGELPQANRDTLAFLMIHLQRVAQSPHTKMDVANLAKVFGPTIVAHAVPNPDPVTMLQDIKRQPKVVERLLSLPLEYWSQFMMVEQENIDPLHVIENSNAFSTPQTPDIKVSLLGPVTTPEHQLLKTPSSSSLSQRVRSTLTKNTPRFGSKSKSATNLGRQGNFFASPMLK

[22] = biological target: T4, Dual specificity protein phosphatase 3; experiment: VHR1 phosphatase inhibitors, primary screen, biochemical, absorbance, uHTS (AID 1654)
[23] = biological target: T4, Dual specificity protein phosphatase 3; experiment: VHR1 phosphatase inhibitors, biochemical (AID 1878)
[24] = biological target: T4, Dual specificity protein phosphatase 3; experiment: SAR VHR1 Fluorescent Assay for In Vitro dose response studies. [Related pubchem assays (depositor defined):AID1654, AID1661, AID1878, AID1992, AID2004, AID2070, AID2085]; type: functional
[25] = biological target: T3, Dual specificity protein phosphatase 6; experiment: SAR analysis of inhibitors of MKP-3 - Set 2. [Related pubchem assays (depositor defined):AID1055, AID1661, AID425, AID553, AID566]; type: functional
[26] = biological target: Glucose-6-phosphate 1-dehydrogenase (Homo sapiens, UniProt P11413); experiment: inhibition of Homo sapiens G6PD, dose series – biochemical, fluorescence, selectivity assay for P. falciparum G6PD inhibitor project, dose response (AID 504792); type: functional
Chain of Glucose-6-phosphate 1-dehydrogenase (P11413 whole entry): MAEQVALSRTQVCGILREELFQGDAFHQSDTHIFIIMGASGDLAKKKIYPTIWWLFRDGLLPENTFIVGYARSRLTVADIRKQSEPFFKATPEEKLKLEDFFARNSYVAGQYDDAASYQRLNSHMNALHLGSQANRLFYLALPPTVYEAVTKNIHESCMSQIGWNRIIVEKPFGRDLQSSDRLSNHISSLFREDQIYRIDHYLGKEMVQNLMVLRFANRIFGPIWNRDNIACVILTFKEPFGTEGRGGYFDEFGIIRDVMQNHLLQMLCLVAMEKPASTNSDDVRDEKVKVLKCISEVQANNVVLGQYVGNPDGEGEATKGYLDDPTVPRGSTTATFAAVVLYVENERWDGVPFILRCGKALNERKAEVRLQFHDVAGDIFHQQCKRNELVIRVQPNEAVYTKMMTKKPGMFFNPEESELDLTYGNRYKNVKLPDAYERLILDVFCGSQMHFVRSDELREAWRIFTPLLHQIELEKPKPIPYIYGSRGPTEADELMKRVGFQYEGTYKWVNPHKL

[27] = biological target: T4, Dual specificity protein phosphatase 3; experiment: SAR VHR1 absorbance Assay for In Vitro dose response studies. [Related pubchem assays (depositor defined):AID1654, AID1661, AID1878, AID1992, AID2004]
[28] = biological target: T3, Dual specificity protein phosphatase 6; type: functional
[29] = biological target: DNA dC->dU-editing enzyme APOBEC-3G (Homo sapiens, UniProt Q9HC16); experiment: Dose Response confirmation of small molecule APOBEC3G DNA Deaminase Inhibitors via a fluorescence-based single-stranded DNA deaminase assay. [Related pubchem assays (depositor defined):AID493012, AID493028]; type: functional
Chain of DNA dC->dU-editing enzyme APOBEC-3G (Q9HC16 whole entry): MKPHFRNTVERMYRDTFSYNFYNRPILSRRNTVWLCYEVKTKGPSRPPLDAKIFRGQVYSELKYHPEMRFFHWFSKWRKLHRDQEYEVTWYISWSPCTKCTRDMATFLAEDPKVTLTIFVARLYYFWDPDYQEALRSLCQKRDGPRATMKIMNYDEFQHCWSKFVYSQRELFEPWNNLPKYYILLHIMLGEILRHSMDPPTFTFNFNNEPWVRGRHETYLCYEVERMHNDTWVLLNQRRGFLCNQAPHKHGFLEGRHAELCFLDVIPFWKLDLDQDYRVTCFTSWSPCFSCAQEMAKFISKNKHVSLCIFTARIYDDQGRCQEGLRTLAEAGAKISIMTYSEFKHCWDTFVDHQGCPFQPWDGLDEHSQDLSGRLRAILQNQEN

[30] = HEK-293T viability loss, compound-treated – cell-based, uHTS hits, cytotoxicity control for B/T-cell NF-kB inhibitor project, dose response (AID 489019); type: functional;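 further: IC50 reflects cytotoxicity as loss of cell viability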
Jurkat [31] = experiment: blockers of NF-kB activation in T cells – Jurkat, luciferase reporter, luminescence, B- and T-cell, dose response (AID 489004); type: functional, cell-based; conditions: Homo sapiens;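 further: NF-kB luciferase reporter Jurkat cells stimulated with PMA plus ionomycin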
Cytochrome P450 2C9 = Cytochrome P450 2C9 (Homo sapiens, UniProt P11712)
Chain of Cytochrome P450 2C9 (P11712 whole entry): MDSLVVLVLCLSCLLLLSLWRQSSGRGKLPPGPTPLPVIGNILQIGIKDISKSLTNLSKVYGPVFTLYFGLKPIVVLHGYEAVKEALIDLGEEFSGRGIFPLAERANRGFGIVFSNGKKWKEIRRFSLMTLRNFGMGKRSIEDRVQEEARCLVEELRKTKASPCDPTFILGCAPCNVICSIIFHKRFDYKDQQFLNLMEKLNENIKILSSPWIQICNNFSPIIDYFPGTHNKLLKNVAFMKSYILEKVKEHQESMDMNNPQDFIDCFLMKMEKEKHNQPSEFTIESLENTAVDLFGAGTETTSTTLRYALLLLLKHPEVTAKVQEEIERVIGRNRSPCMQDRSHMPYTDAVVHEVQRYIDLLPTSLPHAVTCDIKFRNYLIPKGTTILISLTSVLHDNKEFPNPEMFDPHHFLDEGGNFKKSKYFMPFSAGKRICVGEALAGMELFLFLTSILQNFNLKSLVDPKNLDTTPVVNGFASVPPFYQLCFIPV

Cytochrome P450 2C19 = Cytochrome P450 2C19 (Homo sapiens, UniProt P33261); experiment: Cytochrome panel assay with activity outcomes. Panel member name: p450-cyp2c19 Compounds with AC50 equal or less than 10 uM are considered active; type: functional
Chain of Cytochrome P450 2C19 (P33261 whole entry): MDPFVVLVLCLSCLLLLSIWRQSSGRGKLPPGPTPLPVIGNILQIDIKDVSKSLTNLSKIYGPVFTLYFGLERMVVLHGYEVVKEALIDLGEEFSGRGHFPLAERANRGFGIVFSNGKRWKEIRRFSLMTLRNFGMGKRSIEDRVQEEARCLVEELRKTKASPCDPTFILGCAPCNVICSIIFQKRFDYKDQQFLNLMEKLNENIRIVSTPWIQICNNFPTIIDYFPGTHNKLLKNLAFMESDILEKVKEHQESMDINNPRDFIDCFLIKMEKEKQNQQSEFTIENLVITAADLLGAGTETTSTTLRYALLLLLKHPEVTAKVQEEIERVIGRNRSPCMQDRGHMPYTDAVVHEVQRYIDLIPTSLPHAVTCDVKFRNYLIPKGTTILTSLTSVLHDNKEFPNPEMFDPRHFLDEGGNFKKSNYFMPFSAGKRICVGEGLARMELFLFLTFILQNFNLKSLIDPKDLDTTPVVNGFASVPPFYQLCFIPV

Cytochrome P450 3A4 = Cytochrome P450 3A4 (Homo sapiens, UniProt P08684);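 further: CYP3A4 tested as one member of a cytochrome P450 panel screen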
Chain of Cytochrome P450 3A4 (P08684 whole entry): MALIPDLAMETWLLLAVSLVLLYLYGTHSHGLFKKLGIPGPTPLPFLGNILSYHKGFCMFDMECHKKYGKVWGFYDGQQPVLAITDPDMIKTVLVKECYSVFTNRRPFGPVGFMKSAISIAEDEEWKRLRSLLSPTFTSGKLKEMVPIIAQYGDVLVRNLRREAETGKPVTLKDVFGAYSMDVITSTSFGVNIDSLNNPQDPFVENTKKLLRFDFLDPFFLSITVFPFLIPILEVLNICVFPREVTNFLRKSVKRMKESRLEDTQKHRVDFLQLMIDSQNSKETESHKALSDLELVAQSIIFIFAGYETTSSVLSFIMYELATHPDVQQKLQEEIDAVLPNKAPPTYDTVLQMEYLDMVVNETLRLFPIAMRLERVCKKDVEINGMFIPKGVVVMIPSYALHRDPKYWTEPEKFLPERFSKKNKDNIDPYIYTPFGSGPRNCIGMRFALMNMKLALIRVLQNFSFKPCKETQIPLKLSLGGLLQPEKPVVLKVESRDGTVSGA

Cytochrome P450 2D6 = Cytochrome P450 2D6 (Homo sapiens, UniProt P10635);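 further: CYP2D6 member of a cytochrome P450 panel assay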
Chain of Cytochrome P450 2D6 (P10635 whole entry): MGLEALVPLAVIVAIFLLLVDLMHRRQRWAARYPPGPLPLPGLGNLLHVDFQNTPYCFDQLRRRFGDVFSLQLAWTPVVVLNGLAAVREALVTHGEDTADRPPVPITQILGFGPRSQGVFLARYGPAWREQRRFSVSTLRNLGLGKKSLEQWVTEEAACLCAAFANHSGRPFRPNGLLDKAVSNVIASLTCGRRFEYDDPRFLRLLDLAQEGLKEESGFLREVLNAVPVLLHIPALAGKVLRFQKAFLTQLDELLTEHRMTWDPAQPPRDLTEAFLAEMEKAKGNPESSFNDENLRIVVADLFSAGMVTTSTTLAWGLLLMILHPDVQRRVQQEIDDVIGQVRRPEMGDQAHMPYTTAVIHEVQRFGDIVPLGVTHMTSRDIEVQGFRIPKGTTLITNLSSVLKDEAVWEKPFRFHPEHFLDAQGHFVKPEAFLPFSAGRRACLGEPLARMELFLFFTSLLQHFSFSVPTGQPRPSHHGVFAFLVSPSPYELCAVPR

Cytochrome P450 1A2 = biological target: T6, Cytochrome P450 1A2 (Homo sapiens, UniProt P05177);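 further: PubChem cytochrome P450 panel assay, CYP1A2 panel member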
T6 sequence (P05177 whole entry): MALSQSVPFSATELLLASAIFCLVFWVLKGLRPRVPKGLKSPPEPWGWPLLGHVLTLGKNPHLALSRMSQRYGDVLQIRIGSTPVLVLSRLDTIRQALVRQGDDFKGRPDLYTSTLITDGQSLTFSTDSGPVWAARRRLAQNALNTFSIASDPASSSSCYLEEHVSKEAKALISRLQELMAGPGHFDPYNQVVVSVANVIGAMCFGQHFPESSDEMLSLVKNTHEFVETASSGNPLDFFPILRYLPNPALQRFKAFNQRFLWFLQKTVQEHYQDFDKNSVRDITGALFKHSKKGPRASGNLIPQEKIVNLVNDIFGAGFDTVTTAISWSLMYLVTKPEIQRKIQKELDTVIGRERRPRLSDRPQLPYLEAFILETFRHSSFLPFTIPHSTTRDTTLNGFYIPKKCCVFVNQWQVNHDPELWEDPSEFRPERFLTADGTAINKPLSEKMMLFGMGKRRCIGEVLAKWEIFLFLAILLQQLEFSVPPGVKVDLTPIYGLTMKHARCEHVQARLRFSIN

O=C(CCS(=O)(=O)c1ccc(Br)cc1)Nc1ccc(Br)cc1F
IC50 [1]: 22 µM (active) | EC50 [2]: 21.2 µM (active)

CCCNC(=O)CSCc1nc(-c2ccc(SC)cc2)oc1C
IC50 (HEK293 [3]): 42.5 µM (inactive) | IC50 (HEK293 [4]): > 80 µM (inactive) | IC50 [5]: > 80 µM (inactive) | IC50 (Jurkat [6]): > 80 µM (inactive)

CC(C)c1cc(C(=O)N/N=C/C(Br)=C/c2ccccc2)[nH]n1
EC50 (BJ [7]): 22.2 µM (active) | AC50 [8]: 137 µM (active) | EC50 (BJ [9]): 4.12 µM (active) | EC50 (HEK293 [10]): > 59.7 µM (inactive) | EC50 (BJ [11]): 29.6 µM (active) | EC50 (BJ [12]): > 150 µM (inconclusive) | EC50 (HEK293 [13]): > 59.7 µM (inactive) | EC50 [14]: 5.12 µM (active)

CN1CCN(C(=O)c2sc(=S)n(-c3ccccc3)c2N)CC1
IC50 [15]: 1.14 µM (active) and > 100 µM (inactive) and 7.06 µM (active) | IC50 [16]: > 158 µM (not active) | IC50 [17]: 260 nM (active) | IC50 [18]: > 100 µM (inactive) | IC50 [19]: 1.05 µM (active) | IC50 [20]: 58.6 nM (active) | IC50 [21]: 191 µM (active) | IC50 [22]: 1.27 µM (active) | IC50 [23]: 3.53 µM (active) | IC50 [24]: > 99 µM (inactive) | IC50 [25]: > 100 µM (inactive) | IC50 [26]: > 80 µM (inactive) | IC50 [27]: 530 nM (active) | IC50 [28]: > 99 µM (inactive) | IC50 [29]: 5.51 µM (active)

Cn1nc(CC(=O)Nc2ccc3c(c2)CCC3)c2ccccc2c1=O
IC50 [30]: > 80 µM (inactive) | IC50 (Jurkat [31]): > 80 µM (inactive)

O=C(O)c1cc2ccccc2c(Cc2c(O)c(C(=O)O)cc3ccccc23)c1O [PAMOIC ACID]
AC50 (Cytochrome P450 2C9): inactive | AC50 (Cytochrome P450 2C19): inactive | AC50 (Cytochrome P450 3A4): inactive | AC50 (Cytochrome P450 2D6): inactive | AC50 (Cytochrome P450 1A2): inactive
